Experimental data as given in patent US20020028938A1, “Prostaglandin endoperoxide H synthase biosynthesis inhibitors” (priority 1997, published 2002).

Tests used:
[1] = biological target: T1, Human Whole Platelet Cyclooxygenase-1 (Homo sapiens, UniProt P23219); assay: Human Whole Platelet Cyclooxygenase-1 assay (HWPX); format: cell-based; settings: for IC50: read-out: HWPX IC50 (parenthetical value)
T1 construct: from tissue; host or cells: human blood: isolated platelets (A4) or heparinised whole blood (A9)
How it was run: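 Washed platelets from healthy-donor ACD blood were pre-incubated with compound for 10 min, then stimulated with calcium ionophore A23187 (8.8 μM final) for 10 min. Reaction stopped with cold 6 mM EDTA; thromboxane in supernatants quantified with a commercial kit.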

[2] = biological target: T2, recombinant human Cox-1 (r-hu Cox1) (Homo sapiens, UniProt P23219); assay: Recombinant human PGHS-1 enzyme assay (RHUCX1); format: biochemical; settings: for inhibition at 100 µM / inhibition at 200 µM: read-out: RHUCX1 % Inh. at Dose; for IC50: read-out: RHUCX1 IC50 (parenthetical value)
T2 construct: made in house; host or cells: baculovirus/Sf9 insect cells (microsomes)
How it was run: (§1)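 Prostaglandin biosynthesis was measured as PGE2 output, read by enzyme immunoassay after a 2.5-minute room-temperature reaction stopped with HCl and neutralized with NaOH.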

[3] = test system: prostaglandin biosynthesis in vivo (pleural lavage eicosanoids); assay: Rat carrageenan pleural inflammation (CIP) model
Method: (§2) For oral administration, test compounds were suspended on the day of use in 100% polyethyleneglycol (PEG 400) with a motorized homogenizer equipped with a Teflon-coated pestle (TRI-R Instrument, Jamaica, N.Y.).
(§3) To compare the mean responses of the treatment groups, analysis of variance was applied. Percent inhibition values were determined by comparing the individual treatment mean values to the mean of the control group. Linear regression was used to estimate IC50's/ED50's in appropriate assays.
Pleural inflammation was induced in male adrenalectomized Sprague-Dawley rats following the method of Vinegar et al., Fed. Proc. 1976, 35, 2447-2456. Animals were orally dosed with experimental compounds, 30 minutes prior to the intrapleural injection of 2% lambda carrageenan (Sigma Chemical Co., St. Louis Mo.). Four hours later the animals were euthanized and the pleural cavities lavaged with ice cold saline. The lavage fluid was then added to two volumes of ice cold methanol (final methanol concentration 66%) to lyse cells and precipitate protein. Eicosanoids were determined by EIA as described above.

[4] = biological target: T3, recombinant human Cox-2 (r-hu Cox-2) (Homo sapiens, UniProt P35354); assay: Recombinant human PGHS-2 enzyme assay (RHUCX2); format: biochemical; settings: for IC50: read-out: RHUCX2 IC50 (parenthetical value); for inhibition at 0.01 µM / inhibition at 0.1 µM / inhibition at 1 µM: read-out: RHUCX2 % Inh. at Dose
T3 construct: made in house; host or cells: baculovirus/Sf9 insect cells (microsomes)
T3 sequence (P35354 18-604): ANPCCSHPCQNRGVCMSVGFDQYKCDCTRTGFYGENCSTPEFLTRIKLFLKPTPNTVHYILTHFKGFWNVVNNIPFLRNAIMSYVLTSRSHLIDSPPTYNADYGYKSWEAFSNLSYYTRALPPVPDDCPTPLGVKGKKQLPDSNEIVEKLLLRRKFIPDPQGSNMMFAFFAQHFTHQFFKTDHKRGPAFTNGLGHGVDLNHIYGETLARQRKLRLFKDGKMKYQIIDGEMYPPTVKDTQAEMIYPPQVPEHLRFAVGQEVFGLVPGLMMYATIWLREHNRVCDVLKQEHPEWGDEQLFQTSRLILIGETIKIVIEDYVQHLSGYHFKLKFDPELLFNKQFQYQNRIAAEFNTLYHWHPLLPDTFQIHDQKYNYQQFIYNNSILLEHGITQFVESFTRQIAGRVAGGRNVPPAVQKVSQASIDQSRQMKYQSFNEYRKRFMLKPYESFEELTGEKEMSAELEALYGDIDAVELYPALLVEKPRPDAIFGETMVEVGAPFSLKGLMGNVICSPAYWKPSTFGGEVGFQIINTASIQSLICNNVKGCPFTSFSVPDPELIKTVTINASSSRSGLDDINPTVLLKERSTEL
How it was run: as §1

[5] = test system: carrageenan induced paw edema; assay: Carrageenan induced paw edema (CPE) in rats; format: in vivo; settings: 10 mpk oral, rat, 3 hours after carrageenan; read-out: CPE % Inhib. @ 10 mpk
Method: as §2, §3
Hingpaw edema was […] in male rats as described by Winter et al., Proc. Soc. Exp. Biol. Med., 1962, 111, 544. Briefly, male Sprague-Dawley rats weighing between 170 and 190 g were administered test compounds orally 1 hour prior to the subplantar injection of 0.1 ml of 1% sodium carrageenan (lambda carrageenan, Sigma Chemical Co., St Louis, Mo.) into the right hindpaw. Right paw volumes (ml) were measured immediately following injection of carrageenan for baseline volume measurements using a Buxco plethysmograph (Buxco Electronics, Inc., Troy, N.Y.). Three hours after the injection of carrageenan, right paws were remeasured and paw edema calculated for each rat by subtracting the zero time reading from the 3 hour reading. Data are reported as mean percent inhibition +/−SEM. Statistical significance of results was analyzed by Dunnetts multiple comparison test where p<0.05 was considered statistically significant.

[6] = biological target: T4, human amnionic whole cell cyclooxygenase-2 (WISH cells) (Homo sapiens, UniProt P35354); assay: IL-1β induced PGE2 production in WISH cells; format: cell-based; settings: read-out: Wish IC50 (parenthetical value)
T4 construct: endogenous in cells; host or cells: human amnionic WISH cells, induced with IL-1beta
T4 sequence (P35354 18-604): T3 sequence (P35354 18-604)
How it was run: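 Confluent (80%) WISH cells were stimulated with 5 ng/ml IL-1β in serum-free Neuman-Tytell medium, with or without test compound in DMSO (0.01% v/v). PGE2 in the culture medium was measured by EIA against standards prepared in the same medium, read by optical density.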

[7] = test system: air pouch prostaglandin biosynthesis (Cox-2); assay: Carrageenan induced air pouch prostaglandin biosynthesis model (CAP); format: in vivo, rat; settings: for inhibition in vivo at 3 mg/kg: 4 h, 3 mpk, rat, read-out: CAP % Inhib. @ 3 mpk; for ED50: Rattus norvegicus
How it was run: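 Male Sprague Dawley rats with dorsal air pouches (20 mL air day 0, 10 mL day 3) received 0.2% lambda carrageenan in saline into the pouch on day 7. Compounds dosed at 0.1 to 10 mg/kg 30 min before carrageenan; pouch lavaged 4 h later, prostaglandins measured by EIA. Percent inhibition versus control mean; ED50 by linear regression.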

T2 sequence (P23219 24-599): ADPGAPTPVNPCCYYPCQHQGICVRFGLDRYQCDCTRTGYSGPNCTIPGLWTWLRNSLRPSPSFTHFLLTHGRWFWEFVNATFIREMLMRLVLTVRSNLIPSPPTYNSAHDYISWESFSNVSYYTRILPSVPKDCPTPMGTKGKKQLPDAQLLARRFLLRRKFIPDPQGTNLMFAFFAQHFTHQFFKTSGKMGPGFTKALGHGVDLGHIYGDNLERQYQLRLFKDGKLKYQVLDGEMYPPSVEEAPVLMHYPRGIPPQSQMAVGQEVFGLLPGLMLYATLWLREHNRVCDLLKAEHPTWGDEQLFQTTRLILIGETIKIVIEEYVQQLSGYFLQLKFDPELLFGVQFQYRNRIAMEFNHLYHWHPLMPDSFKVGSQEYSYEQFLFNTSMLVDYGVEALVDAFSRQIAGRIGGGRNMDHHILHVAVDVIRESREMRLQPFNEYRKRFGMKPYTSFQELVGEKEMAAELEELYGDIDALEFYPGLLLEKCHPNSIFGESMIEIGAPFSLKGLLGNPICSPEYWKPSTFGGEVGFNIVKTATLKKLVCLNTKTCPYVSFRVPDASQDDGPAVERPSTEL
T1 sequence (P23219 24-599): as above

| Compound | IC50 [1] | melting point | inhibition at 100 µM ([2]; 100 μM) | IC50 [4] | IC50 [6] | inhibition in vivo at 10 mg/kg [5] | inhibition in vivo at 3 mg/kg [7] | ED50 [7] | also measured |
| --- | --- | --- | --- | --- | --- | --- | --- | --- | --- |
| CS(=O)(=O)c1ccc(-c2cnn(Cc3ccccc3)c(=O)c2-c2ccc(F)cc2)cc1 [Example 10, 2-Benzyl-4-(4-fluorophenyl)-5-[4-(methylsulfonyl)phenyl]-3(2H)-pyridazinone] | 4100 nM | 101 to 103 °C | 2% | – | – | – | – | – | inhibition in vivo at 10 mg/kg ([3]; 4 h, 10 mpk oral, read-out: CIP % Inhib. @ 10 mpk): 44% |
| CS(=O)(=O)c1ccc(-c2cnn(CC(F)(F)F)c(=O)c2-c2ccc(Cl)c(F)c2)cc1 [Example 67] | – | – | – | – | – | – | – | – | CIP % Inhib. ([3]; 3 mpk oral): 40 @ 3 mpk % |
| CS(=O)(=O)c1ccc(-c2cnn(-c3cc(F)cc(F)c3)c(=O)c2-c2ccc(F)cc2)cc1 [Example 180] | – | – | – | – | – | – | – | – | RHUCX2 % Inh. at Dose (μM) ([4]; 0.1 μM): 48 @ 0.1%; RHUCX2 % Inh. at Dose (μM) ([4]; 1 μM): 78 @ 1%; RHUCX1 % Inh. at Dose (μM) ([2]; 100 μM): 8 @ 100%; CIP % Inhib. @ 10 mpk ([3]; 10 mpk oral): 34.5% |
| CC(C)(C)COc1c(-c2ccc(S(C)(=O)=O)cc2)cnn(CC(F)(F)F)c1=O [Example 261] | 34000 nM | 145 to 146 °C | – | 161 nM | 99 nM | 28% | 79% | – | inhibition at 200 µM [2]: 0% |
| CC(C)CCOc1c(-c2ccc(S(C)(=O)=O)cc2)cnn(-c2cccc(Cl)c2)c1=O [Example 339, 2-(3-Chlorophenyl)-4-(3-methylbutoxy)-5-[4-(methylsulfonyl)phenyl]-3(2H)-pyridazinone] | 393 nM | 134 to 135 °C | 2% | 88 nM | 26 nM | 43% | 90.5% | 0.58 mg/kg | – |
| CC(C)CCc1c(-c2ccc(S(N)(=O)=O)cc2)cnn(-c2ccc(F)cc2)c1=O [Example 396, 2-(4-Fluorophenyl)-4-(3-methylbutyl)-5-[4-(aminosulfonyl)phenyl]-3(2H)-pyridazinone] | 12700 nM | 180 to 183 °C | 22% | 59 nM | 20 nM | 23% | 85% | – | – |
| CC(C)COc1c(-c2ccc(S(N)(=O)=O)cc2)cnn(-c2ccc(F)c(F)c2)c1=O [Example 403, 2-(3,4-Difluorophenyl)-4-(2-methylpropoxy)-5-[4-(aminosulfonyl)phenyl]-3(2H)-pyridazinone] | 902 nM | 169 to 171 °C | – | – | 18 nM | 43% | 68.5% | 0.35 mg/kg | inhibition at 0.01 µM [4]: 36%; inhibition at 0.1 µM ([4]; 0.1 μM): 64%; inhibition at 1 µM ([4]; 1 μM): 92%; IC50 [2]: 151000 nM |
| CC(C)CCOc1c(-c2ccc(S(N)(=O)=O)cc2)cnn(-c2ccc(F)c(F)c2)c1=O [Example 445, 2-(3,4-Difluorophenyl)-4-(3-methyl-1-butoxy)-5-[4-(aminosulfonyl)phenyl]-3(2H)-pyridazinone] | – | 149 to 151 °C | – | 69 nM | 25 nM | 15% | 73% | – | inhibition at 10 µM ([1]; 10 μM, read-out: HWPX % Inhib. at Dose): 22%; inhibition at 100 µM ([1]; 100 μM, read-out: HWPX % Inhib. at Dose): 100%; IC50 [2]: 56600 nM |

More lines, main results first:

| IC50 [1] | melting point | inhibition at 100 µM ([2]; 100 μM) | IC50 [4] | IC50 [6] | Compound | inhibition in vivo at 10 mg/kg [5] | inhibition in vivo at 3 mg/kg [7] | ED50 [7] | also measured |
| --- | --- | --- | --- | --- | --- | --- | --- | --- | --- |
| 1610 nM | 173 to 175 °C | 23% | – | 26 nM | CC(C)(C)COc1c(-c2ccc(S(N)(=O)=O)cc2)cnn(-c2ccc(F)c(F)c2)c1=O [Example 406, 2-(3,4-Difluorophenyl)-4-(2,2-dimethylpropoxy)-5-[4-(aminosulfonyl)phenyl]-3(2H)-pyridazinone] | 23% | 66.5% | – | inhibition at 0.01 µM [4]: 18%; inhibition at 0.1 µM ([4]; 0.1 μM): 64%; inhibition at 1 µM ([4]; 1 μM): 100% |
| 24400 nM | 123 to 124 °C | – | 373 nM | 20 nM | CC(C)(C)COc1c(-c2ccc(S(N)(=O)=O)cc2)cnn(CC(F)(F)F)c1=O [Example 446] | 44% | 92% | 0.5 mg/kg | inhibition at 200 µM [2]: 0% |
| 40000 nM | 170 to 172 °C | – | 129 nM | 89 nM | CC(C)COc1c(-c2ccc(S(N)(=O)=O)cc2)cnn(CC(F)(F)F)c1=O [Example 449, 2-(2,2,2-Trifluoroethyl)-4-(2-methylpropoxy)-5-[4-(aminosulfonyl)phenyl]-3(2H)-pyridazinone] | 23% | 76% | 1.8 mg/kg | inhibition at 200 µM [2]: 5% |
| 500 nM | 155 to 158 °C | 33% | 810 nM | 108 nM | CC(C)(O)COc1c(-c2ccc(S(N)(=O)=O)cc2)cnn(-c2ccc(F)cc2)c1=O [Example 478, 2-(4-Fluorophenyl)-4-(2-hydroxy-2-methyl-1-propoxy)-5-[4-(aminosulfonyl)phenyl]-3(2H)-pyridazinone] | 26% | 75% | – | – |
